The text below walks through data of article PMC8533089, “Characteristics of Neurokinin-3 Receptor and Its Binding Sites by Mutational Analysis” (Biology, 2021).

Test [1] concerns the target tiTac3Ra (Oreochromis niloticus, UniProt A0A075QPN8). The test is described as follows: CRE-Luc antagonist assay, wild-type receptor, COS-7. The conditions noted are these: for pIC50: antagonist 0.001–1000 μM added 10 min before peptide. In kind it is cell-based, tilapia (Oreochromis niloticus). Here is the method:
In order to study the signaling pathways of the mutant tiTac3Ra, the entire coding regions of tiTac3Ra (GenBank accession no. KF471674), and both of the mutant receptors were inserted into pcDNA3.1 (Invitrogen, Massachusetts, United States). We used a sensitive luciferase (LUC) reporter gene assay. […] Transient transfection, cell procedures and stimulation protocols followed the procedures previously described. Briefly, 3 μg of each construct, together with 3 μg of a luciferase reporter plasmid were transiently transfected into COS-7 cells (American Type Culture Collection, Manassas, VA, USA). Forty-eight hours after transfection, cells transfected with Tac3Ra plasmid fused with GFP were applied with an Hoechst dye (Invitrogen, Massachusetts, United States; diluted 1:1000) in order to mark nuclei in the culture for transfection analysis.
Non-peptide molecules, SB-222200 (Sigma, Merck, Darmstadt, Germany) and Osanetant (Axon Medchem, Reston, VA, USA), known to antagonize mammalian NK3R [49] were studied for their ability to antagonize tiTac3Ra, which was activated with a fixed dose of the native ligands (10 nM tiNKB or tiNKF), combined with increasing doses of the antagonists (0.001–1000 μM). The antagonists were added 10 min prior to the addition of the peptides. IC50 values were calculated from concentration response curves by means of computerized nonlinear curve-fitting with Prism version 9 software (GraphPad, San Diego, CA, USA). All experiments were repeated at least 3 times using cells from independent transfections, each performed in triplicate.
NKB antagonists, SB-222200 (Figure 7A) and Osanetant (Figure 7B) were added in increasing concentrations (0.001–1000 μM) to transfected COS-7 that expressed tiTac3Ra. Ten minutes after the induction of the antagonists, the ligand, tiNKB or tiNKF (10 nM) was added to the media.

In test [2] the test system is Tac3R. Further details: method as in PMID 10992004. The conditions noted are these: cited from earlier work. From the text:
The effect of NKB/NKF peptides on gonadotropin secretion in fish is already well established. The first indication that NKB is widely expressed in fish species and has a stimulatory reproductive effect was shown in zebrafish, goldfish, and tilapia. […] Osetanant re ...

Molecules are shown by their SMILES. pIC50: −log10 of the molar value. Read-outs that look alike come from different tables or passages of the source.

The term pIC50 denotes −log10 of the IC50, conventionally taken in molar units.

Sequence of tiTac3Ra (A0A075QPN8 entry or part of it): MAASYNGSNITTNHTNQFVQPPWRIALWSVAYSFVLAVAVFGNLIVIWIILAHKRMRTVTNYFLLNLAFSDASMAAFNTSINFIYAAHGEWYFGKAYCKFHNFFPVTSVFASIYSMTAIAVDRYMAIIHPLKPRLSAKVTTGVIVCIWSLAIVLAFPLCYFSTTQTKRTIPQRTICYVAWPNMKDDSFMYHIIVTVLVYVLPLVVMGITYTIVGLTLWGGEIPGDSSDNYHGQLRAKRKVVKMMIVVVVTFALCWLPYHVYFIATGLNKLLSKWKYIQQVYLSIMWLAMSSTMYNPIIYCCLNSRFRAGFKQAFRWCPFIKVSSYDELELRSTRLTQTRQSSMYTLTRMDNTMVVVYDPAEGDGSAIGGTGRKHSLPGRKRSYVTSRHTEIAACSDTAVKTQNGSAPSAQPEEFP

For `CC[C@H](NC(=O)c1c(C)c(-c2ccccc2)nc2ccccc12)c1ccccc1` [SB-222200], the pIC50 in test [1] (10 nM tiNKB, COS-7, CRE-Luc, read-out: IC50 versus tiNKB) was 4.08; in test [1] (10 nM tiNKF, COS-7, CRE-Luc, read-out: IC50 versus tiNKF), 4.43. Further, the Emax in test [1] (COS-7, CRE-Luc, 10 nM tiNKB or tiNKF, read-out: luciferase activity reduced to % of maximal response) amounted to 50%. In addition, the “maximum response rate compared with Osanetant” value in test [1] (Figure 7C,D) is listed as “higher maximum response rate than Osanetant”. Further, the “inhibitory effect on Tac3Ra activation” value in test [1] (in words) was “strong inhibitory effect”. Moreover, the “reduction of receptor activity (in words)” value in test [1] (restated in Discussion) was “reduced the receptor activity by half”. Also, the “inhibition of NKB binding to the membranes of CHO cells” value in test [2] (CHO cells stably expressing the Tac3R receptor) is listed as “inhibited NKB binding to the membranes of CHO cells”. Also, the “antagonism of NKB-induced Ca^2+ mobilization” value in test [2] (HEK 293 cells) is given as “antagonized NKB-induced Ca^2+ mobilization in HEK 293 cells”.
